# Where “and” joins values, the source holds several entries; their conditions need not be identical. Equal values may be shown once.
# What was measured:
# [1] = test system: human foetal small bowel xenografts; assay: C.B-17 SCID mouse human intestinal xenotransplant model, Treg trafficking; format: in vivo
# Method: Mice are injected with anti-asialo GM1 antibody at day −2 prior to transfer in order to deplete natural killer (NK) cells. On the day of Treg transfer, mice were treated with Tregs that were either expanded with Rapamycin alone or with the addition of RAR568. Mice also received 1000IU of rhlL-2 IP on the day of Treg transfer, to support the Treg in circulation. After three days in circulation, the presence of CFSE labelled Tregs was assessed by FACS in digested xenograft samples and immunofluoresence on frozen sections. […] Induction of α4β7 is functionally relevant in vivo (e) Control XG, no Tregs, (f) XG from mouse treated with Rapa Tregs (g) XG from mouse treated with Rapa+RAR568 Tregs.
# The C.B-17 SCID mouse human intestinal xenograft model has been previously described^28,29. Institutional Review Board (IRB) and Institutional Animal Care and Use Committee (IACUC) approvals were obtained prospectively (Ethics Committee for Animal Experimentation, Hebrew University of Jerusalem; MD-11-12692-4 and the Helsinki Committee of the Hadassah University Hospital; 81-23/04/04). Tregs were labelled with CFSE (Invitrogen) prior to transfer, as per manufacturer's instructions. Xenografts were processed as per LPMC digestion protocol. CFSE positive cells were detected by flow cytometry. Additionally, CFSE positive cells were detected by immunofluorescence on frozen sections from treated xenografts.
# Fresh xenograft sections were fixed and stored in OCT. Fixed cryostat sections were blocked with 20% fetal calf serum (FCS) and stained with rat anti human CD45 (Invitrogen) and mouse antihuman FOXP3 (Biolegend), followed by donkey anti-rat AF594 (Invitrogen) and donkey anti-mouse NL637 (RnD Systems).
# To assess if the induction of α4β7 was functionally relevant in vivo, cells treated with RAR568 or cells expanded under standard conditions were fluorescently labelled and transferred into a SCID mouse xenografted with human fetal intestinal small bowel by intra-venous injection. Inflammation was induced in the xenografts with Mycobactrium Avium Paratuberculosis (MAP). […]
# [2] = target: T1, RARα (Homo sapiens, UniProt P10276); assay: Selectivity profile against human RARs (RARα agonism); format: biochemical
# T1 sequence (P10276 1-462): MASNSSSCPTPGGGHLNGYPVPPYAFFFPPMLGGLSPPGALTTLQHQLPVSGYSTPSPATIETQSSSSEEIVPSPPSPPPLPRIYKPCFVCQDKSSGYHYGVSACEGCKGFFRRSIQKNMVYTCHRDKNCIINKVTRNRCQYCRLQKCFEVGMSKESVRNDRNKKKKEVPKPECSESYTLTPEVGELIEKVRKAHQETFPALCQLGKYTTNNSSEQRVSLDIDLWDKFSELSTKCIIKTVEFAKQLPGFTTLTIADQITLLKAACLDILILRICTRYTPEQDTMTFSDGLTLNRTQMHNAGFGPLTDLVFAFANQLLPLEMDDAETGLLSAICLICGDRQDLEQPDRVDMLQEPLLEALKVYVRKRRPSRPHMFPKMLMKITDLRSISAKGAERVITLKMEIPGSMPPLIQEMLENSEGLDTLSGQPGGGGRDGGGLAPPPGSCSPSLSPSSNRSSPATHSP
# [3] = test system: FOXP3 in Tregs; assay: FOXP3 expression of ex vivo expanded Tregs; format: cell-based, human; settings: Tregs expanded in the presence of the agonist
# Method: (§1) FACS-sorted Treg populations were plated at 1×10^6 or 0.5×10^6 in X-VIVO-15 medium and activated with anti-CD3/anti-CD28 coated beads (Dynabeads®, Invitrogen, Paisley, UK) at 1:1 bead: cell ratio. Rapamycin was added at day 0 of culture at a final concentration of 100 nM/L +/−ATRA 1 nM/L or RAR568 1 nM/L. Next, 1,000 IU/ml recombinant human IL-2 (rhlL-2) (Proleukin®, Novartis, Camberley, UK) was added at day 5 of culture. Cells were re-stimulated every 10-12 days and expanded for a total of 24-30 days. The phenotype and suppressive ability were assessed at the end of the culture period.
# (§2) Flow cytometry panels have been designed to assess the subtypes of regulatory T cells in patients with CD as well as their expression of gut homing molecules. Gating was performed based on natural populations when assessing for CD4^+CD25^highCD127low populations, as well as for CD45RA^+ Treg populations. Additionally, to minimize bias in the assessment of expression of gut homing markers and transcription factors, a fluorochrome minus one (FMO) panel was added for each marker of interest in each experiment that was performed.
# [4] = test system: CD62L on Tregs; assay: CD62L expression following ex vivo expansion; format: cell-based, human; settings: FIG. 9
# Description: To address the balance between regulatory and effector T cells in the lamina propria of patients with CD, we sought to develop a highly suppressive, phenotypically stable population of autologous ex vivo expanded Tregs that were licensed to traffic to the gut by high level expression of α4β7. These cells could then be utilized as an autologous cell-based therapy for CD. We compared the efficacy of ATRA with RAR568 at inducing α4β7, to determine which agent would be more suitable for downstream application in a clinical trial of Treg therapy for CD. As previously defined^22, our standard culture conditions used the CD4^+CD25^hiCD127^loCD45RA^+ nïave Treg subset, cultured in the presence of rapamycin (RAPA) and high dose IL-2. […] Additionally, cells cultured in the presence of RAR568 cumulatively expressed more α4β7 than those cultured in the presence of ATRA (95.89±1.93 vs 74.21±25.89, p=0.024; FIG. 2b). […] The expression of CD62L, required for homing to the lymph nodes and the effective interaction between integrin α4β7 and its ligand MAdCAM-1 was maintained following ex vivo expansion, irrespective of retinoid treatment (FIG. 9).
# [5] = test system: integrin α4β7 on Tregs; assay: α4β7 expression on ex vivo expanded CD45RA+ Tregs from CD patients (flow cytometry); format: cell-based, human; settings: CD4+CD25hiCD127loCD45RA+ Tregs cultured with rapamycin and high dose IL-2 plus the agonist; mean ± SD
# Method: “Complete X-VIVO-15” (Lonza, Walkersville, MD) was used for ex vivo Treg expansion, Treg cytokine challenge experiments and Treg suppression assays. This was supplemented with 100 nM or 10 nM Rapamycin and all-trans retinoic acid (ATRA) 2 μM or 1 nM, or Rapamycin and RAR568 1 nM.
# as §1
# as §2, with “performed. […]” for “performed.”
smiles,measurement,setting,value
CCOc1c(Cl)cc(C(=O)Nc2ccc(C(=O)O)c(C)c2)cc1OC(C)C [RAR568],Treg trafficking to xenografts,"[1]; 72 hours following i.v. transfer of agonist-treated Tregs, compared to Tregs expanded under standard conditions",significantly more likely to traffic to xenografts
same,Treg trafficking to inflamed xenografts,"[1]; MAP-induced inflammation, agonist-treated Tregs vs standard conditions",significantly more RAR568-treated cells trafficked to the inflamed xenografts
same,presence of CFSE labelled FOXP3+ Tregs in cryosections from inflamed xenografts,"[1]; immunofluorescence, FIG. 5g",evident
same,EC50,[2],0.59 nM
same,FOXP3 expression of expanded Tregs,[3]; mean ± SD,96.99% ±3.51
same,"FOXP3 expression, range",[3]; range,91.5-99.8
same,expression of CD62L following expansion,[4],not affected
same,α4β7 expression of expanded Tregs,[5],95.9±1.93 and 95.89±1.93
